Measurements from patent US12551573B2, “Compositions and methods for the targeting of PCSK9” (Scribe Therapeutics Inc., priority 2022, dated 2026).

Test system: human PCSK9 locus
Experiment: Secreted PCSK9 by ELISA (normalized to total cell count) in Huh7 cells transfected with mRNA and gRNA
Assay type: cell-based
Conditions: paired with LTRP5-ADD-ZIM3 mRNA; for Secreted PCSK9 / Percent reduction in PCSK9 secretion / Average percent reduction in PCSK9 secretion: Huh7 cells, 6 days post-transfection; for Secreted PCSK9: normalized to total cell count; for Percent reduction in PCSK9 secretion: relative to non-targeting gRNA control; for Average percent reduction in PCSK9 secretion: averaged from the two doses
Protocol: To assess PCSK9 secretion, seeded Huh7 cells were transfected with mRNA encoding a catalytically-active CasX 676, dXR1, or LTRP5-ADD-ZIM3 and a gRNA with scaffold 316 and spacer targeting either the B2M or PCSK9 locus. Media supernatant was harvested at 6, 18, 36, and 87 days post-transfection to assess level of PCSK9 secretion by ELISA. Levels of PCSK9 secretion were normalized to total cell count. As an additional control, PCSK9 secretion was also measured in the media supernatant harvested from wells containing untreated, naïve cells.
The following three human hepatocyte cancer cell lines were used in this experiment: HepG2 cells, Hep3B cells, and Huh7 cells. ˜15,000 cells of each cell line were seeded per well; the next day, seeded cells were transfected with mRNA encoding a catalytically-active CasX 676, dXR1, or LTRP5-ADD-ZIM3 and a gRNA with scaffold 316 and spacer targeting either the B2M or PCSK9 locus (see Table 23 for specific spacers and sequences). Media supernatant was harvested at 4 days post-transfection to assess level of PCSK9 secretion by ELISA, and levels of PCSK9 secretion were normalized to total cell count and illustrated in FIGS. 11A-11C. Culturing of treated Huh7 cells continued, and media supernatant was harvested at 14 and 27 days post-transfection for measuring PCSK9 secretion by ELISA. As an additional experimental control, PCSK9 secretion was also measured in the media supernatant harvested from wells containing untreated, naïve cells.
To assess PCSK9 secretion, seeded Huh7 cells were co-transfected with mRNA encoding for LTRP5-ADD-ZIM3 and a gRNA with scaffold 316 and spacer targeting the PCSK9 locus using Lipofectamine™ 3000. Two doses of total RNA input at a 2:1 mass ratio of mRNA to gRNA were used for screening: 50 ng mRNA: 25 ng gRNA and 25 ng mRNA: 12.5 ng gRNA. Media supernatant was harvested at 6 days post-transfection to assess level of PCSK9 secretion by ELISA (Table 74). Levels of PCSK9 secretion were normalized to total cell count. As an additional control, PCSK9 secretion was also measured in the media supernatant harvested from cells transfected with mRNA encoding for mScarlet.

## GAGUGAAAUGGCCUGCUCUG (listed as RNA, chemistry not given here) [spacer 6.118, Promoter]
25 ng mRNA:12.5 ng gRNA
  Secreted PCSK9: 54.78 ng/mL
  Percent reduction in PCSK9 secretion: 23.11%
50 ng mRNA:25 ng gRNA
  Secreted PCSK9: 35.5 ng/mL
  Percent reduction in PCSK9 secretion: 56.86%
  Average percent reduction in PCSK9 secretion: 39.99%

## GCAGCGACGUCGAGGCGCUC (listed as RNA, chemistry not given here) [spacer 6.155, Exon 1]
25 ng mRNA:12.5 ng gRNA
  Secreted PCSK9: 56.36 ng/mL
  Percent reduction in PCSK9 secretion: 20.89%
50 ng mRNA:25 ng gRNA
  Secreted PCSK9: 29.45 ng/mL
  Percent reduction in PCSK9 secretion: 64.21%
  Average percent reduction in PCSK9 secretion: 42.55%

## GCCAGGCCGUCCUCCUCGGA (listed as RNA, chemistry not given here) [spacer 6.4, Exon 1]
25 ng mRNA:12.5 ng gRNA
  Secreted PCSK9: 73.05 ng/mL
  Percent reduction in PCSK9 secretion: 2.54%
50 ng mRNA:25 ng gRNA
  Secreted PCSK9: 54.83 ng/mL
  Percent reduction in PCSK9 secretion: 33.35%
  Average percent reduction in PCSK9 secretion: 15.41%

## GCCGGGCCCACCUUUUCAGU (listed as RNA, chemistry not given here) [spacer 6.148, Promoter]
25 ng mRNA:12.5 ng gRNA
  Secreted PCSK9: 44.77 ng/mL
  Percent reduction in PCSK9 secretion: 37.16%
50 ng mRNA:25 ng gRNA
  Secreted PCSK9: 71.46 ng/mL
  Percent reduction in PCSK9 secretion: 13.15%
  Average percent reduction in PCSK9 secretion: 25.15%

## GCCUCGCCCUCCCCAAACAG (listed as RNA, chemistry not given here) [spacer 6.152, Promoter]
25 ng mRNA:12.5 ng gRNA
  Secreted PCSK9: 57.43 ng/mL
  Percent reduction in PCSK9 secretion: 19.39%
50 ng mRNA:25 ng gRNA
  Secreted PCSK9: 36.95 ng/mL
  Percent reduction in PCSK9 secretion: 55.09%
  Average percent reduction in PCSK9 secretion: 37.24%

## GCGCGCCCCUUCACGCGCCC (listed as RNA, chemistry not given here) [spacer 6.159, Exon 1]
25 ng mRNA:12.5 ng gRNA
  Secreted PCSK9: 80.84 ng/mL
  Percent reduction in PCSK9 secretion: 13.47%
50 ng mRNA:25 ng gRNA
  Secreted PCSK9: 53.15 ng/mL
  Percent reduction in PCSK9 secretion: 35.4%
  Average percent reduction in PCSK9 secretion: 10.97%

## GCUCCUGCACAGUCCUCCCC (listed as RNA, chemistry not given here) [spacer 6.161, Exon 1]
25 ng mRNA:12.5 ng gRNA
  Secreted PCSK9: 53.16 ng/mL
  Percent reduction in PCSK9 secretion: 25.38%
50 ng mRNA:25 ng gRNA
  Secreted PCSK9: 29.55 ng/mL
  Percent reduction in PCSK9 secretion: 64.08%
  Average percent reduction in PCSK9 secretion: 44.73%

## GCUGAAACAGAUGGAAUACU (listed as RNA, chemistry not given here) [spacer 6.172, Intron 1]
25 ng mRNA:12.5 ng gRNA
  Secreted PCSK9: 59.31 ng/mL
  Percent reduction in PCSK9 secretion: 16.75%
50 ng mRNA:25 ng gRNA
  Secreted PCSK9: 44.44 ng/mL
  Percent reduction in PCSK9 secretion: 45.99%
  Average percent reduction in PCSK9 secretion: 31.37%

## GGAAAGCUGAGCUUGUGCCU (listed as RNA, chemistry not given here) [spacer 6.135, Promoter]
25 ng mRNA:12.5 ng gRNA
  Secreted PCSK9: 44.59 ng/mL
  Percent reduction in PCSK9 secretion: 37.42%
50 ng mRNA:25 ng gRNA
  Secreted PCSK9: 25.66 ng/mL
  Percent reduction in PCSK9 secretion: 68.82%
  Average percent reduction in PCSK9 secretion: 53.12%

## GGAAGGGCUGUCGAUACUGG (listed as RNA, chemistry not given here) [spacer 6.121, Promoter]
25 ng mRNA:12.5 ng gRNA
  Secreted PCSK9: 37.13 ng/mL
  Percent reduction in PCSK9 secretion: 47.89%
50 ng mRNA:25 ng gRNA
  Secreted PCSK9: 28.33 ng/mL
  Percent reduction in PCSK9 secretion: 65.57%
  Average percent reduction in PCSK9 secretion: 56.73%

## GGAGCAGGGCGCGUGAAGGG (listed as RNA, chemistry not given here) [spacer 6.158, Exon 1]
25 ng mRNA:12.5 ng gRNA
  Secreted PCSK9: 31.72 ng/mL
  Percent reduction in PCSK9 secretion: 55.48%
50 ng mRNA:25 ng gRNA
  Secreted PCSK9: 9.39 ng/mL
  Percent reduction in PCSK9 secretion: 88.59%
  Average percent reduction in PCSK9 secretion: 72.03%

## GGGUCUGAGCCUGGAGGAGU (listed as RNA, chemistry not given here) [spacer 6.157, Exon 1]
25 ng mRNA:12.5 ng gRNA
  Secreted PCSK9: 32.4 ng/mL
  Percent reduction in PCSK9 secretion: 54.53%
50 ng mRNA:25 ng gRNA
  Secreted PCSK9: 12.32 ng/mL
  Percent reduction in PCSK9 secretion: 85.03%
Huh7, scaffold 316, days 4, 14, 27
  repression of PCSK9 secretion by spacer: most effective repression of PCSK9 secretion
  Average percent reduction in PCSK9 secretion: 69.78%

## GUGCUCGGGUGCUUCGGCCA (listed as RNA, chemistry not given here) [spacer 6.5, Exon 1]
25 ng mRNA:12.5 ng gRNA
  Secreted PCSK9: 76.37 ng/mL
  Percent reduction in PCSK9 secretion: 7.19%
50 ng mRNA:25 ng gRNA
  Secreted PCSK9: 67.08 ng/mL
  Percent reduction in PCSK9 secretion: 18.47%
  Average percent reduction in PCSK9 secretion: 5.64%

## GUGGGAAGGUUCGCGGGGUU (listed as RNA, chemistry not given here) [spacer 6.168, Intron 1]
25 ng mRNA:12.5 ng gRNA
  Secreted PCSK9: 50.96 ng/mL
  Percent reduction in PCSK9 secretion: 28.47%
50 ng mRNA:25 ng gRNA
  Secreted PCSK9: 19.1 ng/mL
  Percent reduction in PCSK9 secretion: 76.78%
  Average percent reduction in PCSK9 secretion: 52.62%

## GUGGGCAGCGAGGAGUCCAC (listed as RNA, chemistry not given here) [spacer 6.144, Promoter]
25 ng mRNA:12.5 ng gRNA
  Secreted PCSK9: 29 ng/mL
  Percent reduction in PCSK9 secretion: 59.29%
50 ng mRNA:25 ng gRNA
  Secreted PCSK9: 23.42 ng/mL
  Percent reduction in PCSK9 secretion: 71.53%
  Average percent reduction in PCSK9 secretion: 65.41%

## GUGUUUCCUGGGUCCACCUU (listed as RNA, chemistry not given here) [spacer 6.147, Promoter]
25 ng mRNA:12.5 ng gRNA
  Secreted PCSK9: 37.43 ng/mL
  Percent reduction in PCSK9 secretion: 47.46%
50 ng mRNA:25 ng gRNA
  Secreted PCSK9: 53.6 ng/mL
  Percent reduction in PCSK9 secretion: 34.85%
  Average percent reduction in PCSK9 secretion: 41.15%

## GUUAAUGUUUAAUCAGAUAG (listed as RNA, chemistry not given here) [spacer 6.153, Promoter]
25 ng mRNA:12.5 ng gRNA
  Secreted PCSK9: 86.58 ng/mL
  Percent reduction in PCSK9 secretion: 21.52%
50 ng mRNA:25 ng gRNA
  Secreted PCSK9: 73.23 ng/mL
  Percent reduction in PCSK9 secretion: 10.99%
  Average percent reduction in PCSK9 secretion: 5.27%

## Non-targeting (guide CGAGACGTAATTACGTCTCG; chemistry not given here)
25 ng mRNA:12.5 ng gRNA
  Secreted PCSK9: 71.24 ng/mL
  Percent reduction in PCSK9 secretion: 0%
50 ng mRNA:25 ng gRNA
  Secreted PCSK9: 82.28 ng/mL
  Percent reduction in PCSK9 secretion: 0%
  Average percent reduction in PCSK9 secretion: 0%

## TG-06-002 (guide ACCGCUGCGCCAAGGUGCGG; listed as RNA, chemistry not given here)
25 ng mRNA:12.5 ng gRNA
  Secreted PCSK9: 83.15 ng/mL
  Percent reduction in PCSK9 secretion: 16.71%
50 ng mRNA:25 ng gRNA
  Secreted PCSK9: 81.95 ng/mL
  Percent reduction in PCSK9 secretion: 0.4%
  Average percent reduction in PCSK9 secretion: 8.16%

## TG-06-249 (guide AAACCAAAUCGGAACCCACU; listed as RNA, chemistry not given here)
25 ng mRNA:12.5 ng gRNA
  Secreted PCSK9: 82.36 ng/mL
  Percent reduction in PCSK9 secretion: 15.61%
50 ng mRNA:25 ng gRNA
  Secreted PCSK9: 87.36 ng/mL
  Percent reduction in PCSK9 secretion: 6.18%
  Average percent reduction in PCSK9 secretion: 10.89%

## TG-06-250 (guide GAUUUGGUUUGGAAAACAUG; listed as RNA, chemistry not given here)
25 ng mRNA:12.5 ng gRNA
  Secreted PCSK9: 80.42 ng/mL
  Percent reduction in PCSK9 secretion: 12.87%
50 ng mRNA:25 ng gRNA
  Secreted PCSK9: 86.92 ng/mL
  Percent reduction in PCSK9 secretion: 5.64%
  Average percent reduction in PCSK9 secretion: 9.26%

## TG-06-251 (guide CUCCAGGCCCUCCACCCUCC; listed as RNA, chemistry not given here)
25 ng mRNA:12.5 ng gRNA
  Secreted PCSK9: 44.62 ng/mL
  Percent reduction in PCSK9 secretion: 37.37%
50 ng mRNA:25 ng gRNA
  Secreted PCSK9: 36.8 ng/mL
  Percent reduction in PCSK9 secretion: 55.28%
  Average percent reduction in PCSK9 secretion: 46.32%

## TG-06-342 (guide AAUUACAGGCAACAGGAAGG; listed as RNA, chemistry not given here)
25 ng mRNA:12.5 ng gRNA
  Secreted PCSK9: 75.23 ng/mL
  Percent reduction in PCSK9 secretion: 5.6%
50 ng mRNA:25 ng gRNA
  Secreted PCSK9: 51.55 ng/mL
  Percent reduction in PCSK9 secretion: 37.34%
  Average percent reduction in PCSK9 secretion: 15.87%

## TG-06-343 (guide CCCCAUGUAAGAGAGGAAGU; listed as RNA, chemistry not given here)
25 ng mRNA:12.5 ng gRNA
  Secreted PCSK9: 75.55 ng/mL
  Percent reduction in PCSK9 secretion: 6.04%
50 ng mRNA:25 ng gRNA
  Secreted PCSK9: 62.8 ng/mL
  Percent reduction in PCSK9 secretion: 23.67%
  Average percent reduction in PCSK9 secretion: 8.82%
